Test results from article PMC11791199 (Scientific Reports, 2025).
“Also recorded” adds a separate entry of the source.

Experiments:
[1] = molecular target: ClpC1 NTD K85A mutant (Mycobacterium tuberculosis, UniProt P9WPC9, K85A); format: binding
[2] = molecular target: ClpC1 NTD F80A mutant (Mycobacterium tuberculosis, UniProt P9WPC9, F80A); format: binding

CC1=C[C@@H](/C=C(\Cl)c2ccc(C(=O)O)cc2)[C@]2(C(=O)O)C=C[C@@H](CCOC(=O)c3ccc(NCc4ccccc4)cc3)C[C@@H]2C1 [F5, (2R,4aR,5S,8aR)-2-(2-((4-(benzylamino)benzoyl)oxy)ethyl)-5-((Z)-2-(4-carboxyphenyl)-2-chlorovinyl)-7-methyl-1,5,8,8a-tetrahydronaphthalene-4a(2H)-carboxylic acid]
binding by ITC [1]: no binding could be observed; also recorded: no binding was observed | binding by ITC [2]: no binding could be observed; also recorded: no binding was observed
